Experimental data from patent US20230416248A1, “COMPOUNDS AND USES THEREOF” (Foghorn Therapeutics Inc., priority 2020, published 2023).
Where two headings read alike, the source gives them in different places.

Assays:
BRG-1 = molecular target: T1, BRG-1 (Homo sapiens, UniProt P51532); experiment: ATPase catalytic activity of BRG-1, ADP-Glo in vitro biochemical assay; details: 30 nM BRG-1, 400 μM ATP, read-out: BRG1 IC50
T1 construct: made in house; host or cells: High Five insect cells
Outline: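 Once the ATPase reaction finished, leftover ATP was depleted over 40 minutes at room temperature. Generated ADP was next turned back into ATP during a 60-minute room-temperature step. Luciferase-derived light was then measured.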

BRM = molecular target: T2, BRM (Homo sapiens, UniProt P51531); experiment: ATPase catalytic activity of BRM, ADP-Glo in vitro biochemical assay; details: for IC50: 30 nM BRM, 400 μM ATP; for Ratio* (BRG1 IC50 (μM) divided by BRM IC50 (μM)): selectivity ratio BRG1 IC50 / BRM IC50
T2 construct: made in house; host or cells: High Five insect cells
Outline: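 ADP-Glo luminescence, after depletion of leftover ATP and conversion of ADP, reported the activity. The 1 h room-temperature reaction held 400 μM ATP, 20 nM salmon sperm DNA and 30 nM BRM in 20 mM Tris pH 8, 20 mM MgCl2, 50 mM NaCl, 0.1% Tween-20, 1 mM DTT.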

[1] = ATPase catalytic activity, ADP-Glo

T1 sequence (P51532 whole entry): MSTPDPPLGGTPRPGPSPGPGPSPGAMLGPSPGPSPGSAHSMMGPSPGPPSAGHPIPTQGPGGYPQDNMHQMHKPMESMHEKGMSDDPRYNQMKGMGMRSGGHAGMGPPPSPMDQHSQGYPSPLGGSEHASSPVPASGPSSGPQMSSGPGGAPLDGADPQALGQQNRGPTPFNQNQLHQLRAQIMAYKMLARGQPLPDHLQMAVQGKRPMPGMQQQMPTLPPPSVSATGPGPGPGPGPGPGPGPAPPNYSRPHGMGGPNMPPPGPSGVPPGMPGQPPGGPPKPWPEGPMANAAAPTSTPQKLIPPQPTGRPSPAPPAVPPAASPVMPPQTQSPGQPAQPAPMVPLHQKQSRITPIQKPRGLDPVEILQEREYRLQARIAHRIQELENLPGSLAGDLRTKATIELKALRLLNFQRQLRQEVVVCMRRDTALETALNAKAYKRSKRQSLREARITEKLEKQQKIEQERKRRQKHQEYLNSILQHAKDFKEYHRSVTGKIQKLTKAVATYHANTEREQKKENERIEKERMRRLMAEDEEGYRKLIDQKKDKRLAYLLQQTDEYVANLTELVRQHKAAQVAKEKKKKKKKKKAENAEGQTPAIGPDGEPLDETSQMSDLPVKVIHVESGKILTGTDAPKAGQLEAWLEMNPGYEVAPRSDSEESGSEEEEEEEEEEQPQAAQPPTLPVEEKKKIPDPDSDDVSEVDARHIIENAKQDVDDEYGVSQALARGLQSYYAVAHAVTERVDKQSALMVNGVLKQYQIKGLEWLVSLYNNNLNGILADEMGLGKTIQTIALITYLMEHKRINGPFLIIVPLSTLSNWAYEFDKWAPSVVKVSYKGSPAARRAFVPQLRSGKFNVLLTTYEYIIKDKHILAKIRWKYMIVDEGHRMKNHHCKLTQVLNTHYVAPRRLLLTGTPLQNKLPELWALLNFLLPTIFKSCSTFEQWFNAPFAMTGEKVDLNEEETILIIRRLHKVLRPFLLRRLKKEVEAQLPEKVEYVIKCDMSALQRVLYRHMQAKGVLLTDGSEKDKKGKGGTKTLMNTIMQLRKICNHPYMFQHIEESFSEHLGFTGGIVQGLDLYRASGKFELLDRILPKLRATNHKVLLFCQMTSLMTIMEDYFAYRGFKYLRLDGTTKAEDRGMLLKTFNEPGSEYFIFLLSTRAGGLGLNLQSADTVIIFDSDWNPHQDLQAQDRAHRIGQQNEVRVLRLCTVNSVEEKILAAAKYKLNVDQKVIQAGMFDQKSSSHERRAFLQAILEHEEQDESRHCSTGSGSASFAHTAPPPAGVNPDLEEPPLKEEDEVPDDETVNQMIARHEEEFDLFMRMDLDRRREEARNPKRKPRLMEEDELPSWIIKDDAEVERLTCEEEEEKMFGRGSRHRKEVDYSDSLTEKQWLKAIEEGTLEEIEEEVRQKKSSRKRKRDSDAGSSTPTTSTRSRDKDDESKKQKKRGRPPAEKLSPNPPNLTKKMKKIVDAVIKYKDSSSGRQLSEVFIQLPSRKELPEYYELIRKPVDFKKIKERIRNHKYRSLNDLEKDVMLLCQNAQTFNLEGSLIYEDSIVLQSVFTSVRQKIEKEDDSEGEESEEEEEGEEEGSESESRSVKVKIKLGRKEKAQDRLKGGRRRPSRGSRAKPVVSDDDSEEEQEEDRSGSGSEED
T2 sequence (P51531 whole entry): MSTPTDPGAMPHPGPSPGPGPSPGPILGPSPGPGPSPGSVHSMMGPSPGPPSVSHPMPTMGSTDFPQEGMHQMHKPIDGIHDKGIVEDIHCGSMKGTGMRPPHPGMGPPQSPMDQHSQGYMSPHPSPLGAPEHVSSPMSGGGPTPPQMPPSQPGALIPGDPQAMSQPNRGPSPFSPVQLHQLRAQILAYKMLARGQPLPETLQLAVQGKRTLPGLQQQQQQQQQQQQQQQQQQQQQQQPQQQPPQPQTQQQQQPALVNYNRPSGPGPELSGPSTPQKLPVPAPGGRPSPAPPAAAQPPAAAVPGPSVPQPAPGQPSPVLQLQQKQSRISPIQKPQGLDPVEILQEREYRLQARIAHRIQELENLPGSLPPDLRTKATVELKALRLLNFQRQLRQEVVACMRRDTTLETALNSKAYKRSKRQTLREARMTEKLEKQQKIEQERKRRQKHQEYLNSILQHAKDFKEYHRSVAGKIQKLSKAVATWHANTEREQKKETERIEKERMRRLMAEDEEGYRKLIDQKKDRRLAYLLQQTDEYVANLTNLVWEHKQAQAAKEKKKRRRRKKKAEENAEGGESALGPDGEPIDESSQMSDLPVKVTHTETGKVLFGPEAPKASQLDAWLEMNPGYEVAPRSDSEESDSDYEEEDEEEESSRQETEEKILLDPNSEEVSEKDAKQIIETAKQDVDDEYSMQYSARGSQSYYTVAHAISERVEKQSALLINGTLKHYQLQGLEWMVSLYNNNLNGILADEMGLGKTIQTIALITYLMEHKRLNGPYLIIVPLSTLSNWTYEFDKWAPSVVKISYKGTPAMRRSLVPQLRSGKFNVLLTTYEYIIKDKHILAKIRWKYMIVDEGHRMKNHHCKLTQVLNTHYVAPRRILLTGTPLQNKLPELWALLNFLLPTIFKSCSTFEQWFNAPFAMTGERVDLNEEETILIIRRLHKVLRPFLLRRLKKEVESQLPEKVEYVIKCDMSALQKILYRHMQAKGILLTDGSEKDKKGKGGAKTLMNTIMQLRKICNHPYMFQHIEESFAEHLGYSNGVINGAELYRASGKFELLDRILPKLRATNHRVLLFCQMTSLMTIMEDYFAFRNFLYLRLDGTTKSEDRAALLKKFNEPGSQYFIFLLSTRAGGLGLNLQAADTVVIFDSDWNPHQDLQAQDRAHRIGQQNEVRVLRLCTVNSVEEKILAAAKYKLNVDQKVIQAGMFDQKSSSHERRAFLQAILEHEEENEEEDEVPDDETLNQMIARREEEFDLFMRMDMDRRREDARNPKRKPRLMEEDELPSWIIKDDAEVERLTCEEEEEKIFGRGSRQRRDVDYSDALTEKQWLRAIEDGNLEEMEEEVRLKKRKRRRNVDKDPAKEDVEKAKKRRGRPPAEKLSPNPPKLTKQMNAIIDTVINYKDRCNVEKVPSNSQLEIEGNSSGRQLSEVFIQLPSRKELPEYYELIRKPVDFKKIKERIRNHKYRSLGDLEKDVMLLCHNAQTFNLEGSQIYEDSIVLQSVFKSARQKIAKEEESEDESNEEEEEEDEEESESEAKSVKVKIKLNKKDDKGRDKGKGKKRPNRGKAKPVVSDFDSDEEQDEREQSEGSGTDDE

SMILES | IC50 (BRG-1; ADP-Glo ATPase assay) [µM] | IC50 (BRM; ADP-Glo ATPase assay) [µM] | Ratio* (BRM; ratio BRG1 IC50 / BRM IC50) | IC50 (BRG-1; [1]) [µM] | IC50 (BRM; [1]) [µM] | Ratio* (BRM; ratio of BRG1 IC50 to BRM IC50) | Ratio* (BRG1 IC50 (μM) divided by BRM IC50 (μM)) (BRM)
C[C@@H]1CN(c2ccnc(-c3ccc4cnc(CNC(=O)c5ccc6c(c5)S(=O)(=O)CCOC6)cc4c3)n2)C[C@H](C)O1 [Compound 707] | 0.264 | 0.0546 | 4.84 | – | – | – | –
O=C(NCc1cc2nc(-c3cccc(N(C4CCOCC4)C4CC4)n3)ccc2cn1)c1ccc2c(c1)S(=O)(=O)CCOC2 [Compound 398] | – | – | – | 0.919 | 0.185 | 4.97 | –
C[C@@H]1CN(c2nccc(-c3ccc4cnc(CNC(=O)c5ccc(Cl)c(S(C)(=O)=O)c5)cc4n3)n2)C[C@H](C)O1 [Compound 180] | 0.272 | 0.0176 | – | – | – | – | 15.48
O=C(NCc1cc2nc(N3CCCc4ccc(C5CCCO5)nc43)ccc2cn1)c1ccc2c(c1)S(=O)(=O)CCOC2 (centres unmarked) [Compound 659] | – | – | – | 1.04 | 0.0427 | 24.28 | –
O=C(NCc1cc2nc(-c3cccc(OCC(F)F)n3)ccc2cn1)c1ccc2c(c1)S(=O)(=O)CCOC2 [Compound 167] | 0.827 | 0.0593 | – | – | – | – | 13.95
C[C@@H]1CN(c2cccc(-c3ccc4cnc(CNC(=O)c5cc(Cl)c6c(c5)S(=O)(=O)CCOC6)cc4n3)n2)C[C@H](C)O1 [Compound 143] | 0.108 | 0.0076 | – | – | – | – | 14.36
Cc1cnc2c(c1)CCCN2c1ccc2cnc(CNC(=O)c3ccc4c(c3)S(=O)(=O)[C@@H](C)COC4)cc2n1 [Compound 396] | – | – | – | 0.104 | 0.0059 | 17.40 | –
C[C@@H]1CN(c2cccc(-c3ccc4cnc(CNC(=O)c5ccc6c(c5)S(=O)(=O)[C@@H](C)CCO6)cc4n3)n2)C[C@H](C)O1 [Compound 15] | 0.0511 | 0.0075 | – | – | – | – | 6.80
CO[C@H]1CN(c2cccc(-c3ccc4cnc(CNC(=O)c5ccc6c(c5)S(=O)(=O)CCOC6)cc4n3)n2)C[C@@H]1F [Compound 339] | – | – | – | 0.0858 | 0.0096 | 8.89 | –
COCCN1CCOc2c(-c3ccc4cnc(CNC(=O)c5ccc(C(F)F)c(S(C)(=O)=O)c5)cc4n3)cccc21 [Compound 89] | 0.648 | 0.0308 | – | – | – | – | 21.02
C[C@@H]1CCc2ccc(-c3ccc4cnc(CNC(=O)c5ccc6c(c5)S(=O)(=O)CCOC6)cc4n3)nc2N1C [Compound 467] | – | – | – | 0.102 | 0.0236 | 4.32 | –
CCN1CCN(c2ccc3cnc(CNC(=O)c4ccc5c(c4)S(=O)(=O)CCOC5)cc3n2)c2ncccc21 [Compound 615] | – | – | – | 0.358 | 0.0221 | 16.22 | –
COc1ccc2c(n1)N(c1ccc3cnc(CNC(=O)c4ccc5c(c4)S(=O)(=O)CCOC5)cc3n1)CCC2 [Compound 568] | – | – | – | 1.06 | 0.106 | 9.95 | –
Cc1cc(C(=O)NCc2cc3nc(-c4cccc(N5C[C@@H](C)O[C@@H](C)C5)n4)ccc3cn2)cc2c1OCC[C@H](C)S2(=O)=O [Compound 456] | – | – | – | 0.398 | 0.0185 | 21.49 | –
COc1cc2c(cc1F)CCCN2c1ccc2cnc(CNC(=O)c3ccc4c(c3)S(=O)(=O)CCOC4)cc2n1 [Compound 714] | 0.667 | 0.0549 | – | – | – | – | –
CC(C)Oc1cccc(-c2ccc3cnc(CNC(=O)c4ccc5c(c4)S(=O)(=O)CCOC5)cc3n2)n1 [Compound 165] | 2.12 | 0.116 | – | – | – | – | 18.39
C[C@@H]1C[C@H]1c1ccc2c(n1)N(c1ccc3cnc(CNC(=O)c4ccc5c(c4)S(=O)(=O)CCOC5)cc3n1)CCO2 [Compound 809] | 0.269 | 0.0069 | 39.28 | – | – | – | –
O=C(NCc1cc2nc(-c3cn(C4COC4)nc3C3CC3)ccc2cn1)c1ccc2c(c1)S(=O)(=O)CCOC2 [Compound 194] | 2.78 | 0.219 | – | – | – | – | 12.69
COC[C@H](C)Nc1cccc(-c2ccc3cnc(CNC(=O)c4ccc(C(F)F)c(S(C)(=O)=O)c4)cc3n2)n1 [Compound 61] | 5 | 0.956 | – | – | – | – | 5.23
C[C@@H]1CN(c2cccc(-c3ccc4cnc(CNC(=O)c5ccc6c(c5)S(=O)(=O)CCC(F)C6)cc4n3)n2)C[C@H](C)O1 (some centres unmarked) [Compound 779] | 0.0117 | 0.0055 | 2.13 | – | – | – | –
COC1CCOc2c(-c3ccc4cnc(CNC(=O)c5ccc6c(c5)S(=O)(=O)CCOC6)cc4n3)cccc21 (centres unmarked) [Compound 168] | 0.879 | 0.094 | – | – | – | – | 9.35
O=C(NCc1cc2nc(N3CCCc4ccc(F)nc43)ccc2cn1)c1ccc2c(c1)S(=O)(=O)CCOC2 [Compound 603] | – | – | – | 0.117 | 0.0107 | 10.88 | –
COCc1ccc(C(=O)NCc2cc3nc(-c4cncc(C5CC5)n4)ccc3cn2)cc1S(C)(=O)=O [Compound 273] | 2.8 | 0.119 | – | – | – | – | 23.47
CO[C@H]1CCN(c2cccc(-c3ccc4cnc(CNC(=O)c5ccc6c(c5)S(=O)(=O)CCOC6)cc4n3)n2)C[C@H]1C [Compound 437] | – | – | – | 0.292 | 0.0248 | 11.79 | –

Continued, values first:

IC50 (BRG-1; ADP-Glo ATPase assay) [µM] | IC50 (BRM; ADP-Glo ATPase assay) [µM] | Ratio* (BRM; ratio BRG1 IC50 / BRM IC50) | IC50 (BRG-1; [1]) [µM] | IC50 (BRM; [1]) [µM] | Ratio* (BRM; ratio of BRG1 IC50 to BRM IC50) | Ratio* (BRG1 IC50 (μM) divided by BRM IC50 (μM)) (BRM) | SMILES
– | – | – | 1.08 | 0.0777 | 13.88 | – | O=C(NCc1cc2nc(N3CCCc4ccc(OCC5CC5)nc43)ccc2cn1)c1ccc2c(c1)S(=O)(=O)CCOC2 [Compound 589]
0.0842 | 0.0094 | 8.96 | – | – | – | – | COc1cccc2c1CCCN2c1ccc2cnc(CNC(=O)c3cnc4c(c3)S(=O)(=O)[C@@H](C)COC4)cc2n1 [Compound 733]
1.44 | 0.111 | 13.00 | – | – | – | – | O=C(NCc1cc2cc(N3CCOc4cc(C5CC5)cnc43)cnc2cn1)c1ccc2c(c1)S(=O)(=O)CCOC2 [Compound 801]
– | – | – | 0.225 | 0.0166 | 13.49 | – | CO[C@H]1CN(c2cccc(-c3ccc4cnc(CNC(=O)c5ccc6c(c5)S(=O)(=O)CCOC6)cc4n3)n2)C[C@H]1F [Compound 332]
2.41 | 0.223 | – | – | – | – | 10.84 | O=C(NCc1cc2nc(-c3cncc(C4CC4)n3)ccc2cn1)c1ccc2c(c1)S(=O)(=O)NCCC2 [Compound 293]
1.48 | 0.0903 | – | – | – | – | 16.45 | O=C(NCc1cc2nc(-c3cccc(CC(F)F)n3)ccc2cn1)c1ccc2c(c1)S(=O)(=O)CCOC2 [Compound 205]
1.64 | 0.211 | – | – | – | – | 7.78 | CCO[C@H]1CCOc2c(-c3ccc4cnc(CNC(=O)c5ccc6c(c5)S(=O)(=O)CCOC6)cc4n3)cccc21 [Compound 66]
0.0099 | 0.003 | – | – | – | – | 3.33 | Cc1cc(-c2cccc(-c3ccc4cnc(CNC(=O)c5ccc6c(c5)S(=O)(=O)CCOC6)cc4n3)n2)cc(C)n1 [Compound 169]
0.236 | 0.0235 | – | – | – | – | 10.05 | CN(CC(F)F)c1cccc(-c2ccc3cnc(CNC(=O)c4ccc5c(c4)S(=O)(=O)CCOC5)cc3n2)n1 [Compound 115]
– | – | – | 0.431 | 0.0473 | 9.12 | – | O=C(NCc1cc2nc(-c3cccc(OC4CC4(F)F)n3)ccc2cn1)c1ccc2c(c1)S(=O)(=O)CCOC2 (centres unmarked) [Compound 427]
2.37 | 0.0451 | 52.48 | – | – | – | – | O=C(NCc1cc2nc(N3CCOc4ccc(C5CC(F)(F)C5)nc43)ccc2cn1)c1ccc2c(c1)S(=O)(=O)CCOC2 [Compound 828]
0.205 | 0.0126 | 16.24 | – | – | – | – | O=C(NCc1cc2nc(N3CCOc4cnc(C5CC5)c(F)c43)ccc2cn1)c1ccc2c(c1)S(=O)(=O)CCOC2 [Compound 853]
